In article PMC12920294, “Optimizing uPAR-targeting radiopeptides for improved tissue distribution: progress towards radionuclide therapy” (European Journal of Nuclear Medicine and Molecular Imaging, 2025):
Marks after values point to notes of the source that are not given here.

What was measured:
human serum albumin = human serum albumin (Homo sapiens, UniProt P02768); assay type: in vitro ADME; set-up: tissue Stiftung Blutspende SRK Aargau-Solothurn, Switzerland; host or cells: human blood plasma
Sequence of human serum albumin (P02768 25-609): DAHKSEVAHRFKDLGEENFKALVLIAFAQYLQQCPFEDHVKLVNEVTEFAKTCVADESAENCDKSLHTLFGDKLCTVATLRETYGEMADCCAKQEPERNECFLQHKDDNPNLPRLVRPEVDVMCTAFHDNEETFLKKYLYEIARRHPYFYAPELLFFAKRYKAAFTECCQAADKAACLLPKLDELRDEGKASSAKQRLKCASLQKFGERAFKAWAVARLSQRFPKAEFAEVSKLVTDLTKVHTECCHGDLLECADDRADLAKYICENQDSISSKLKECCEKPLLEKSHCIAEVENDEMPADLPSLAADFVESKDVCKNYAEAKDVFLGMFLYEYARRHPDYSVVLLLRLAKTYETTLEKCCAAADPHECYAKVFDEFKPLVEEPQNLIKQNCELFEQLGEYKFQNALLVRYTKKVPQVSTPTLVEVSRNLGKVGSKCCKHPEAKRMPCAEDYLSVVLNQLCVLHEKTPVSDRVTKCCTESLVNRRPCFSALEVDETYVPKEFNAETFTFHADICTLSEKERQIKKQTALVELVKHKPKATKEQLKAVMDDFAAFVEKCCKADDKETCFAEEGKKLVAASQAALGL
Method: (§1) The albumin-binding properties of the radiopeptides in mouse and human blood plasma were determined using an ultrafiltration assay with Amicon centrifugal filters (cut-off of 10 kDa; Merck Millipore) as previously reported (Supplementary Material). A fixed amount of the respective radiopeptide (~ 300 kBq, 15 µL, 6 pmol) was added to a defined volume (150 µL) of mouse and human blood plasma dilutions to obtain [mouse serum albumin]-to-[radiopeptide] molar concentration ratios of 0.01‒12,500 and [human serum albumin]-to-[radiopeptide] molar concentration ratios of 0.01‒20,000. The data were analyzed using a semi-logarithmic Hill plot with the maximum binding set as 100% using GraphPad Prism software (version 10.1.1). The half-maximum binding (B50 values) of each radiopeptide was expressed as relative values using the inverse ratios with the value of [^177Lu]Lu-uPAR-11 set as 1.0. […] The samples were incubated at 37 °C for 30 min. Ice-cold PBS (150 µL, pH 7.4) was added before loading the blood plasma samples on Amicon centrifugal filters (cut-off of 10 kDa; Merck Millipore) followed by centrifugation (14000 rcf, 4 °C, 30 min) to allow the separation of the plasma protein-bound from the unbound (free) fractions of each sample. The inserts of the filter devices were inverted and centrifuged at 200 rcf for 3 min to recover the protein-bound radiopeptide. The activity of the protein-bound fraction was measured using a γ-counter (Wallac Wizard 1480, PerkinElmer). The activity in the filtrate and filter unit was counted in the γ-counter and the counts were combined, assuming that the fraction retained in the filter membrane was not bound to proteins. The protein-bound fraction was expressed as percentage of the whole activity (i.e. plasma protein-bound activity, activity measured in the filtrate and activity measured in the filter (set as 100%)). The data were analyzed using a semi-logarithmic plot assuming a maximum binding of 100%. The Hill equation was fitted to the data points, and the half-maximum binding (B50) was determined based on the obtained binding curves using GraphPad Prism software (version 10.1.1). To quantitatively express and compare the albumin-binding properties of the radiopeptides, the relative albumin-binding affinity was expressed as the inverse half-maximal-binding (B50) of the respective radioligand to that of [^177Lu]Lu-uPAR-11, which was set as 1.0. The results were presented as the value obtained from the average curve from 3 independent experiments.

mouse serum albumin = biological target: T1, mouse serum albumin (Mus musculus, UniProt P07724); assay type: in vitro ADME
T1 construct: tissue Rockland Immunochemicals Inc., USA Lot: 32321; host or cells: mouse blood plasma
T1 sequence (P07724 25-608): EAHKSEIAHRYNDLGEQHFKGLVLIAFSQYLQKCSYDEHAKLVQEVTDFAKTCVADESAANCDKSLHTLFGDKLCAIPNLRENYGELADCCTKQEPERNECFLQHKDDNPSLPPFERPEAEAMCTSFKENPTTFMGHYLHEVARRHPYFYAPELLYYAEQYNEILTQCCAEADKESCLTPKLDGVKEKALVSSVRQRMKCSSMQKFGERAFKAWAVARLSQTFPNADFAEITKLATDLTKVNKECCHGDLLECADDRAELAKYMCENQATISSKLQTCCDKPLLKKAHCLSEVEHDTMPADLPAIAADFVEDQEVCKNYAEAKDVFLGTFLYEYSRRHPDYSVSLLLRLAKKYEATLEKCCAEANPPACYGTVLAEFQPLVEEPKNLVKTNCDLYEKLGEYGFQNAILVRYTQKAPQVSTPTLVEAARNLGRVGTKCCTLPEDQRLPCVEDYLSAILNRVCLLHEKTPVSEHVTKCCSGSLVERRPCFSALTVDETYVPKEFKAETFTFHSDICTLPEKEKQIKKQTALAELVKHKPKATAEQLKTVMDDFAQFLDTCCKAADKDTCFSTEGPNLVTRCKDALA
Method: as §1

Inverse relative albumin-binding affinity (human serum albumin) | Albumin-binding affinity relative to [177Lu]Lu-uPAR-11 (mouse serum albumin) | Albumin-binding properties, relative values (inverse B50 ratio) (mouse serum albumin) | Weaker affinity to human albumin than [177Lu]Lu-uPAR-02 (human serum albumin) [fold] | Weaker affinity to mouse albumin than [177Lu]Lu-uPAR-02 (mouse serum albumin) [fold] | SMILES
0.50 | 0.50‒0.77 | 0.66 |  |  | Cc1ccc(CCCC(=O)NCCOCCOCCOCCOCCC(=O)NC[C@H](NC(=O)CN2CCN(CC(=O)O)CCN(CC(=O)O)CCN(CC(=O)O)CC2)C(=O)N[C@@H](CC(=O)O)C(=O)N[C@@H](CC2CCCCC2)C(=O)N[C@@H](Cc2ccccc2)C(=O)N[C@H](CO)C(=O)N[C@H](CCCNC(=N)N)C(=O)N[C@@H](Cc2ccc(O)cc2)C(=O)N[C@@H](CC(C)C)C(=O)N[C@@H](Cc2c[nH]c3ccccc23)C(=O)N[C@@H](CO)C(N)=O)cc1 [[^177Lu]Lu-uPAR-14, metal not drawn]
1.00^b |  |  | 4.6 | 3.2 | Cc1ccc(CCCC(=O)NCCOCCOCCOCCOCCC(=O)NCCCC[C@H](NC(=O)CN2CCN(CC(=O)O)CCN(CC(=O)O)CCN(CC(=O)O)CC2)C(=O)N[C@@H](CC(=O)O)C(=O)N[C@@H](CC2CCCCC2)C(=O)N[C@@H](Cc2ccccc2)C(=O)N[C@H](CO)C(=O)N[C@H](CCCNC(=N)N)C(=O)N[C@@H](Cc2ccc(O)cc2)C(=O)N[C@@H](CC(C)C)C(=O)N[C@@H](Cc2c[nH]c3ccccc23)C(=O)N[C@@H](CO)C(N)=O)cc1 [[^177Lu]Lu-uPAR-11, metal not drawn]
1.05 |  | 0.66 |  |  | Cc1ccc(CCCC(=O)NCCOCCOCCOCCOCCOCCC(=O)NCCCC[C@H](NC(=O)CN2CCN(CC(=O)O)CCN(CC(=O)O)CCN(CC(=O)O)CC2)C(=O)N[C@@H](CC(=O)O)C(=O)N[C@@H](CC2CCCCC2)C(=O)N[C@@H](Cc2ccccc2)C(=O)N[C@H](CO)C(=O)N[C@H](CCCNC(=N)N)C(=O)N[C@@H](Cc2ccc(O)cc2)C(=O)N[C@@H](CC(C)C)C(=O)N[C@@H](Cc2c[nH]c3ccccc23)C(=O)N[C@@H](CO)C(N)=O)cc1 [[^177Lu]Lu-uPAR-18, metal not drawn]
0.65 | 0.50‒0.77 | 0.77 |  |  | Cc1ccc(CCCC(=O)NCCOCCOCCOCCOCCC(=O)NCCCC[C@H](NC(=O)CC[C@H](C(=O)O)N2CCN(CC(=O)O)CCN(CC(=O)O)CCN(CC(=O)O)CC2)C(=O)N[C@@H](CC(=O)O)C(=O)N[C@@H](CC2CCCCC2)C(=O)N[C@@H](Cc2ccccc2)C(=O)N[C@H](CO)C(=O)N[C@H](CCCNC(=N)N)C(=O)N[C@@H](Cc2ccc(O)cc2)C(=O)N[C@@H](CC(C)C)C(=O)N[C@@H](Cc2c[nH]c3ccccc23)C(=O)N[C@@H](CO)C(N)=O)cc1 [[^177Lu]Lu-uPAR-17, metal not drawn]
0.77 | 0.50‒0.77 | 0.77 |  |  | Cc1ccc(CCCC(=O)NCCOCCOCCOCCC(=O)NCCCC[C@H](NC(=O)CN2CCN(CC(=O)O)CCN(CC(=O)O)CCN(CC(=O)O)CC2)C(=O)N[C@@H](CC(=O)O)C(=O)N[C@@H](CC2CCCCC2)C(=O)N[C@@H](Cc2ccccc2)C(=O)N[C@H](CO)C(=O)N[C@H](CCCNC(=N)N)C(=O)N[C@@H](Cc2ccc(O)cc2)C(=O)N[C@@H](CC(C)C)C(=O)N[C@@H](Cc2c[nH]c3ccccc23)C(=O)N[C@@H](CO)C(N)=O)cc1 [[^177Lu]Lu-uPAR-15, metal not drawn]
